Experimental data: patent US4596806A, “7-piperidino-1,2,3,5-tetrahydroimidazo[2,1-b]-quinazolin-2-one having platelet aggregation inhibitory activity” (Daiichi Seiyaku Co., Ltd., priority 1983, dated 1986)
Read-outs that look alike come from different tables or passages of the source.

Key:
platelet aggregation = experiment: Test of Platelet Aggregation Inhibition (in vitro), human PRP; format: cell-based; conditions: for IC50: Homo sapiens, Platelet, human blood, read-out: Platelet Aggregation Inhibitory Activity (in vitro: IC50)
Procedure: The test was performed as follows in accordance with the method of Ashida et al, Thrombosis and Haemostasis, Vol. 40, p542 (1979).
Blood was taken by puncture from the heart of a Wistar Imamichi rat under anesthesia with pentobarbital into a syringe containing 1/10 volume of a 3.13% aqueous solution of sodium citrate dihydrate, and the citrated blood was centrifuged to obtain a platelet-rich-plasma (PRP). In the same manner, citrated blood was collected from the vein of a healthy human who had not taken aspirin or any other anti-inflammatory agent since before 10 days, followed by centrifugation to obtain PRP. 0.005 ml of each test compound was added to 0.445 ml each of these PRP samples, and the system was warmed at 30° C. for 1 minute. 0.05 ml of an aggregation inducer (ADP or collagen) was then added thereto, and platelet aggregation was determined according to the method of Born, Nature, Vol. 194, p927 (1962). The inhibitory activity of platelet aggregation was expressed in terms of 50% inhibition concentration, and the results obtained are shown in Table 2.

circulatory system = experiment: Test of Influence on Circulatory System (blood pressure, heart beat); format: in vivo, rat (male normal SLC-Wistar); conditions: p.o. 50 mg/Kg
Procedure: 5 or 6 male normal SLC-Wistar rats per group (body weight: 205-255 g) orally received 50 mg/Kg of the test compound, and the blood pressure (tail cuff method) and the heart beats were measured with the passage of time in order to elucidate influences of the test compound on the circulatory system.

3LL-induced aggregation = experiment: Test of Inhibition of Platelet Aggregation Caused by Cancer Cells (ex vivo), 3LL; format: in vivo, C57BL/6 mouse
Procedure: The compound of the invention (dihydrochloride monohydrate) dissolved in a physiological saline solution (J.P.) was intravenously or orally administered to a 7-week-old C57BL/6 male mouse (body weight: about 20 g). Three minutes after the intravenous administration or 1 hour later from the oral administration, blood was taken from the abdominal vein into a syringe containing 1/10 volume of a 3.13% aqueous solution of sodium citrate dihydrate and PRP was prepared as described before in Test Example 6. The PRP was placed in a reaction tube under the same conditions as in Test Example 6, and 5 μl of a 200 mM calcium chloride aqueous solution was added thereto. One minute later, 50 μl of a B16BL6 (5×10^4 cells/50 μl)- or a 3LL (2×10^6 cells/50 μl)-cell suspension was added to the system. In the same manner as in Test Example 6, platelet aggregation was determined.

[1] = test system: B16BL6-Induced Acute Pulmonary Embolism; experiment: Test of Inhibition of Death by Acute Pulmonary Embolism; format: in vivo, C57BL/6 mouse
Procedure: The compound of the present invention (dihydrochloride monohydrate) was dissolved in a physiological saline solution (J.P.) and intravenously administered to the tail vein of a 5-week-old (C57BL/6 male mouse (body weight: about 18.5 g) at a dose of 10 mg/kg or 30 mg/kg. After 3 minutes, 5×10^5 cells of B16BL6 were intravenously inoculated to the tail vein. The death ratios 3 and 10 minutes after the inoculation are shown in Table 6.

3LL = experiment: Test of Inhibition on Pulmonary Metastasis, 3LL; format: in vivo, C57BL/6 mouse; conditions: day 11, mean ± standard error
Procedure: 1×10^5 cells/animal of B16BL6 or 7×10^5 cells/animal of 3LL were inoculated to the tail vein of 10 to 12 6-week-old C57BL/6 male mice per group (body weight: about 18.5 g). The compound (I) (dihydrochloride monohydrate) dissolved in a physiological saline solution (J.P.) was administered to each animal at a dose of 1, 3 or 10 mg/kg orally 24 hours, 1 hour before and 1 hour after the inoculation, or intravenously immediately before the inoculation. On the 13th day from the inoculation of B16BL6 or 11th day from the inoculation of 3LL, the number of metastatic nodules in the lungs was counted using an operating microscope.

[2] = test system: Water Immersion and Immobilization-induced Gastric Ulcer; experiment: Effect on Water Immersion and Immobilization-induced Gastric Ulcer in Rats; format: in vivo, rat (Donryu male); conditions: p.o.
Procedure: Donryu male rats having a body weight of 352 to 414 g were subjected to the stress-induced gastric ulceration test by water-immersion and immobilization [Takagi and Okabe, Japan J. Pharmacol., 18, 9-18 (1968)] at a water temperature of 20° to 22° C. for 7 hours. Compound (I) was administered orally in the form of a suspension in a 0.5% aqueous CMC solution at a dose of 5 ml/Kg 30 minutes before loading the stress. After the test period, the rats were sacrificed and the hyperemic area and the erosious area on the stomach inside wall were measured to determine % inhibition of the ulcer.

O=C1CN2Cc3cc(N4CCCCC4)ccc3N=C2N1 [Compound (I), 7-piperidino-1,2,3,5-tetrahydroimidazo[2,1-b]quinazolin-2-one]
IC50 (platelet aggregation; inducer ADP): 2500 nM | IC50 (platelet aggregation; inducer collagen): 530 nM | anti-platelet aggregation activity (in words) (platelet aggregation; in vitro, Table 2 results (human and rat PRP)): substantially equal to that of BL-3459 and BL-4162 | reduction in blood pressure and increase in heart beat (in words) (circulatory system): relatively small and also these changes can be restored in short periods of time | Increase in Heart Beat (circulatory system; 1 hr after admin.): 27% | Reduction in Blood Pressure (circulatory system; 1 hr after admin.): 18% | Increase in Heart Beat (circulatory system; 2 hr after admin.): 32% | Reduction in Blood Pressure (circulatory system; 2 hr after admin.): 12% | Increase in Heart Beat (circulatory system; 3 hr after admin.): 27% | Reduction in Blood Pressure (circulatory system; 3 hr after admin.): 12% | Increase in Heart Beat (circulatory system; 5 hr after admin.): 25% | Reduction in Blood Pressure (circulatory system; 5 hr after admin.): 12% | Increase in Heart Beat (circulatory system; 6 hr after admin.): 17% | Reduction in Blood Pressure (circulatory system; 6 hr after admin.): 9% | delay of 3LL-induced aggregation (ex vivo) (3LL-induced aggregation; 10 mg/kg (i.v.)): ≥ 150% | inhibition of 3LL-induced aggregation (ex vivo) (3LL-induced aggregation; 30 mg/kg (i.v.)): completely inhibited | Number of Dead Animals/Number of Tested Animals ([1]; i.v. 10 mg/kg, after 3 min): 2/9 | Number of Dead Animals/Number of Tested Animals ([1]; i.v. 10 mg/kg, after 10 min): 4/9 | Number of Dead Animals/Number of Tested Animals ([1]; i.v. 30 mg/kg, after 3 min): 1/9 | Number of Dead Animals/Number of Tested Animals ([1]; i.v. 30 mg/kg, after 10 min): 4/9 | Number of Metastatic Nodules in the Lungs (3LL; 1 mg/kg): 15.4 ± 2.8 | Number of Metastatic Nodules in the Lungs (3LL; 3 mg/kg): 5.9 ± 1.3 | Number of Metastatic Nodules in the Lungs (3LL; 10 mg/kg): 4.0 ± 1.1 | Ulcer Index, Erosious Area ([2]; 30 mg/kg): 17.8 ± 5.7 mm | Ulcer Index, Erosious Area, Inhibition ([2]; 30 mg/kg): 32% | Ulcer Index, Hyperemic Area ([2]; 30 mg/kg): 19.4 ± 9.0 mm | Ulcer Index, Hyperemic Area, Inhibition ([2]; 30 mg/kg): 69% | Ulcer Index, Erosious Area ([2]; 100 mg/kg): 1.3 ± 0.8 mm | Ulcer Index, Erosious Area, Inhibition ([2]; 100 mg/kg): 95% | Ulcer Index, Hyperemic Area ([2]; 100 mg/kg): 0 mm | Ulcer Index, Hyperemic Area, Inhibition ([2]; 100 mg/kg): 100% | Ulcer Index, Erosious Area ([2]; 300 mg/kg): 2.6 ± 1.3 mm | Ulcer Index, Erosious Area, Inhibition ([2]; 300 mg/kg): 90% | Ulcer Index, Hyperemic Area ([2]; 300 mg/kg): 0 mm | Ulcer Index, Hyperemic Area, Inhibition ([2]; 300 mg/kg): 100%
